Reference: ChEMBL document CHEMBL2010676, “Metabolites of Microcystis aeruginosa bloom material from Lake Kinneret, Israel” (J Nat Prod, 2012)
Active and inactive are the calls of the source. The rule behind the calls is not given here.

Key:
[1] = Inhibition of elastase at 45.5 uM
[2] = Inhibition of trypsin
[3] = Inhibition of chymotrypsin at 45.5 uM
[4] = target: Prothrombin (Homo sapiens) (UniProt P00734); experiment: Inhibition of thrombin at 45.5 uM
[5] = Inhibition of chymotrypsin
[6] = Inhibition of trypsin at 45.5 uM
[7] = target: T1, Aminopeptidase N (Bos taurus) (UniProt P79098); experiment: Inhibition of bovine amino peptidase N at 45.5 uM
T1 sequence (whole entry): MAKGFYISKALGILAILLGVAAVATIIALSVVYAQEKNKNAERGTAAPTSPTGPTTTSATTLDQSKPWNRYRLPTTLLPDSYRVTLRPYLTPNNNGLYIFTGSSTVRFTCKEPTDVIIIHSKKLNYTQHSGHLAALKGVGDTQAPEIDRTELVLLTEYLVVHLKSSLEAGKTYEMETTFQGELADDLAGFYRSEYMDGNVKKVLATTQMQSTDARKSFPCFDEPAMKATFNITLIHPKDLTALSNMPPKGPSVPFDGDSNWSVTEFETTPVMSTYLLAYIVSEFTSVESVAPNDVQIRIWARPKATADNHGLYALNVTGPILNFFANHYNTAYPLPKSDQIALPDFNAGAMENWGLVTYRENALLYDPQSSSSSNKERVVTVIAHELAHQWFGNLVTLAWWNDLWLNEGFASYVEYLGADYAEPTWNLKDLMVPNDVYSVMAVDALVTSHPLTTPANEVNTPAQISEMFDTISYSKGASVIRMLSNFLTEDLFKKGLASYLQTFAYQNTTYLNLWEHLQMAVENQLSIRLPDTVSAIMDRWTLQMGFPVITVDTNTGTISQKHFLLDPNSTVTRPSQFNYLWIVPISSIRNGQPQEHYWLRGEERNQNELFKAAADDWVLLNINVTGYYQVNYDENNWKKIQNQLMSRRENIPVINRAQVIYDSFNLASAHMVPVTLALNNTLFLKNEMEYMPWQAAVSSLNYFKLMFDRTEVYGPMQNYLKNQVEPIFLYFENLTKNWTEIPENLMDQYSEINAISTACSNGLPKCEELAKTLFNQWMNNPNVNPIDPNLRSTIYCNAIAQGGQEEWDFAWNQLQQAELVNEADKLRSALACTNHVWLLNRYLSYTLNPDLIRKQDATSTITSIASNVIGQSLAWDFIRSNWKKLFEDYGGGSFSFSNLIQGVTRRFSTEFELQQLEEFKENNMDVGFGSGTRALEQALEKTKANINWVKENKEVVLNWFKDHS

[8] = tested on: HCT-116; experiment: Cytotoxicity against human HCT116 cells at 1.6 uM; assay type: functional, cell-based
[9] = target: Prothrombin (Homo sapiens) (UniProt P00734); experiment: Induction of thrombin activity at 45.5 uM

Row | Compound | inhibition [1] | IC50 [2] | inhibition [3] | inhibition [4] | IC50 [5] | inhibition [6] | inhibition [7] | Activity [8] | Activity [9]
1 | CC(=O)O[C@@H]1CC[C@@H]2C[C@H](C(N)=O)N(C(=O)[C@@H](Cc3ccc(O)cc3)NC(=O)[C@@H](O)Cc3ccc(O)cc3)[C@@H]2C1 | inactive | 45.5 µM | inactive | inactive | – | – | – | – | –
2 | CC[C@@H](C)[C@H]1C(=O)N(C)[C@@H](Cc2ccccc2)C(=O)N[C@@H](C(C)C)C(=O)O[C@H](C)[C@H](NC(=O)[C@H](CCC(N)=O)NC(=O)[C@H](O)Cc2ccc(O)cc2)C(=O)N[C@@H](Cc2ccc(O)cc2)C(=O)N[C@H]2CC[C@@H](O)N1C2=O (relative stereo) | inactive | – | – | inactive | 0.26 µM | inactive | – | – | –
3 | CC(=O)O[C@H](Cc1ccc(O)cc1)C(=O)N[C@H](Cc1ccccc1)C(=O)N1[C@@H](C(=O)NCCCCNC(=N)N)C[C@H]2CC[C@@H](O)C[C@H]21 | inactive | 19.9 µM | inactive | < 50% | – | – | – | – | –
4 | CC(C)C[C@@H](NC(=O)[C@H](O)Cc1ccc(O)cc1)C(=O)N[C@@H](Cc1ccccc1)C(=O)NCCCCNC(=N)N | inactive | 45.5 µM | inactive | inactive | – | – | – | – | –
5 | N=C(N)NCCCCNC(=O)[C@H]1C[C@H]2CC[C@@H](O)C[C@H]2N1C(=O)[C@@H](Cc1ccccc1)NC(=O)[C@H](O)Cc1ccc(O)cc1 | inactive | 1.3 µM | inactive | < 50% | – | – | – | – | –
6 | CC(OC(=O)C(CCCNC(=N)N)[N+](C)(C)C)C(OS(=O)(=O)[O-])c1ccc(OS(=O)(=O)O)c(COS(=O)(=O)O)c1 (stereo not drawn) | – | – | – | inactive | – | inactive | inactive | inactive | –
7 | N=C(N)NCCCCNC(=O)[C@H]1C[C@H]2CC[C@@H](O)C[C@H]2N1C(=O)[C@@H](Cc1ccccc1)NC(=O)[C@@H](O)Cc1ccc(O)cc1 | inactive | 1.9 µM | inactive | – | – | – | – | – | 30%
